Two compounds from ChEMBL document CHEMBL2073919, “cDNA cloning and functional characterization of rat intestinal monocarboxylate transporter” (Biochem Biophys Res Commun, 1995) can be followed below.

The assay deals with T1, Monocarboxylate transporter 1 (Rattus norvegicus) (UniProt P53987).
T1 sequence (whole entry): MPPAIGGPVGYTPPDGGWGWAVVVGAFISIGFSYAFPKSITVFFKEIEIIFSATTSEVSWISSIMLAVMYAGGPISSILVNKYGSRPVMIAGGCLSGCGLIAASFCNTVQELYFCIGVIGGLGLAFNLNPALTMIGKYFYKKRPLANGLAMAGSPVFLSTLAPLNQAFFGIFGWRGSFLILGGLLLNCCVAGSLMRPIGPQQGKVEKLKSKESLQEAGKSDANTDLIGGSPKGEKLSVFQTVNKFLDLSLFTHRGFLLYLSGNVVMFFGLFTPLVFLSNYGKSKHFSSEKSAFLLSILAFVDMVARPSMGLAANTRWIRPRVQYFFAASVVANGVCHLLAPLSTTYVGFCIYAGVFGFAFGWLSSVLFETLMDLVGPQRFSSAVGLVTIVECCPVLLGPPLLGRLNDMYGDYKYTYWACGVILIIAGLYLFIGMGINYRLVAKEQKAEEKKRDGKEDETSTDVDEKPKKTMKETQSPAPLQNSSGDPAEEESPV
Kind of assay: TP_TRANSPORTER: uptake in Xenopus laevis oocytes. Type of assay: functional, cell-based. The conditions noted are these: Oocyte.

Consider `C[C@H](O)C(=O)O`, for which the Activity result is “substrate [+]”.

As for `C[C@@H](O)C(=O)O`, the Activity entry is “substrate [+]”.
